This note sets out measurements from patent US20220145343A1 (priority 2019, published 2022).

The subject of assay [1] is α2-6-sialyltransferase activity of NmSiaDW. The format is biochemical, Neisseria meningitidis.
Another assay relates to NmCSS and PmAldolase. The format is biochemical, Neisseria meningitidis; Pasteurella multocida.
Assay [2] deals with α1-4-galactosyltransferase activity of NmSiaDW. The format is biochemical, Neisseria meningitidis.
Assay [3] has the same test system. Kind of assay: Donor substrate specificity for the α1-4-galactosyltransferase activity of NmSiaDW using different sugar nucleotides (acceptor S3). The format is biochemical, Neisseria meningitidis. The note with it: for Percentage conversion (%): acceptor S3 1 mM, donor 2 mM, 30° C. Here is the method:
Galactosyltransferase activity was assayed in reaction buffer (100 mM MES, pH 6.5, 10 mM MgCl2) in the presence of 2 mM UDP-sugars and 1 mM Neu5Acα2-6Galα1-4Neu5AcαProNHCbz in a total volume of 10 μL. Reaction was performed at 30° C. with 0.11 μg NmSiaDW for 10 min or 6.6 μg NmSiaDW for 10 h. Reaction was quenched by addition of 10 μL pre-chilled ethanol and incubated at −20° C. for 30 min. […] GDP-Fuc and CMP-Neu5Ac were also included.
Samples were analyzed using UPLC with EcilpsePlusC18 column or AdvancBio Glycan Map column, Agilent. The samples were further analyzed by electrospray ionization (ESI)-HRMS using a Thermo Electron LTQ-Orbitrap Hybrid MS in a negative mode.

In assay [4] the target is NmSiaDW sialyltransferase activity (Neisseria meningitidis, UniProt O33390). The note with it: apparent; varying acceptor, 10 mM CMP-Neu5Ac, pH 8.0, 30° C.
NmSiaDW sialyltransferase activity, sequence (O33390 1-1037): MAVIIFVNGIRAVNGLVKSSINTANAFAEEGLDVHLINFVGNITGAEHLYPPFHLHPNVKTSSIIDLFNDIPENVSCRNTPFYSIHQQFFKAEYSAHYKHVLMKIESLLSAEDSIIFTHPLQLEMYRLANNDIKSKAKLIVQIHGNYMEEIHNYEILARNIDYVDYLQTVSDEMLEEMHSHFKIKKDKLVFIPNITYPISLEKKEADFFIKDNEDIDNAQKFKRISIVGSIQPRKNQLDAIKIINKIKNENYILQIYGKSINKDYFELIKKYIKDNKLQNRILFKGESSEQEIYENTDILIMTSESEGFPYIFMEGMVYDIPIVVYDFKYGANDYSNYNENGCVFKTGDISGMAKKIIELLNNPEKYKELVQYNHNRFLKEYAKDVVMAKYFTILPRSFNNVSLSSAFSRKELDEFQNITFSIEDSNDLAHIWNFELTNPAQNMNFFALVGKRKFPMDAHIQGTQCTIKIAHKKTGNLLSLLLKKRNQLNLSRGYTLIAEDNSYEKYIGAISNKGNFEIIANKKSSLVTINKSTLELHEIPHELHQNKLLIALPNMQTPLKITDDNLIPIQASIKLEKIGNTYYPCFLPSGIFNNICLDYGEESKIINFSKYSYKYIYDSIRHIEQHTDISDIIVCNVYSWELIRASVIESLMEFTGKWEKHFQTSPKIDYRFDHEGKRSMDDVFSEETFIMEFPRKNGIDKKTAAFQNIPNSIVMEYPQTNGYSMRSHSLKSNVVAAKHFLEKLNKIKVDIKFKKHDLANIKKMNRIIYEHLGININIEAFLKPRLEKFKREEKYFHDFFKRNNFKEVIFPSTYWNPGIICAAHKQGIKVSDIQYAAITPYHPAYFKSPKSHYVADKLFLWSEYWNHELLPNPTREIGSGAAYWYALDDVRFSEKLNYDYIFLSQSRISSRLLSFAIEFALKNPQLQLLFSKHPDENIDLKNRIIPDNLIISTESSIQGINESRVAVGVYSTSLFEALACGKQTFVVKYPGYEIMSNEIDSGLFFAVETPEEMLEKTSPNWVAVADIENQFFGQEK
For a further assay, the target named is NmCSS (Neisseria meningitidis, UniProt P0A0Z8). The format is biochemical. The note with it: step 1 in the presence of NmCSS (0.75 mg/mL) for 10 h.
NmCSS, sequence (P0A0Z8 whole entry): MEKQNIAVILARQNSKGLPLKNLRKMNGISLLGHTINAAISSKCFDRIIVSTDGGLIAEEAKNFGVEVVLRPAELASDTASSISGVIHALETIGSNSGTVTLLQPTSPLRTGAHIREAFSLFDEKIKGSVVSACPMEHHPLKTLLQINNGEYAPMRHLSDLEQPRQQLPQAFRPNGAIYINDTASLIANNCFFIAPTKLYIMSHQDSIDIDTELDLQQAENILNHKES
Assay [5] has as its target NmSiaDW galactosyltransferase activity (Neisseria meningitidis, UniProt O33390). Conditions: apparent; varying acceptor, 2 mM UDP-Gal, pH 6.5, 30° C.

“And” between values parts separate entries of the source, which are not always exact repeats. Equal values may be shown once. Marks after values point to notes of the source that are not given here.

NmSiaDW galactosyltransferase activity, sequence (O33390 1-1037): as the sequence (O33390 1-1037) above

In the case of `CC(=O)NC[C@@H](O)[C@@H](O)[C@H](O)[C@@H](C=O)NC(C)=O` [ManNAc6NAc, 6-N-acetyl-6-deoxy-N-acetylmannosamine], the “Percentage conversion (%) Transferase Reaction” value in assay [1] is 0%. Moreover, the “Percentage conversion (%) CMP-Sialic acid” value in the assay with NmCSS and PmAldolase is 87 ± 2 ^b %. Neu5Ac7N3α2-6Galα1-4Neu5AcαProNHCbz: the Product result in assay [2] is “√”.

In the case of `CC(=O)N[C@H]1[C@@H](OP(=O)(O)OP(=O)(O)OC[C@H]2O[C@@H](n3ccc(=O)[nH]c3=O)[C@H](O)[C@@H]2O)O[C@H](CO)[C@@H](O)[C@@H]1O` [UDP-GlcNAc], the “Percentage conversion (%)” value in assay [3] (11 μg/mL NmSiaDW, 10 min) is listed as 0%; in assay [3] (0.66 mg/mL NmSiaDW, 10 h), 0%. For `CC(=O)N[C@H]1[C@H]([C@H](O)[C@H](O)CO)O[C@@](OC[C@H]2O[C@H](O[C@H]3C[C@](OC[C@H]4O[C@H](O[C@H]5C[C@](OCCCNC(=O)OCc6ccccc6)(C(=O)O)O[C@@H]([C@H](O)[C@H](O)CO)[C@@H]5NC(C)=O)[C@H](O)[C@@H](O)[C@H]4O)(C(=O)O)O[C@@H]([C@H](O)[C@H](O)CO)[C@@H]3NC(C)=O)[C@H](O)[C@@H](O)[C@H]2O)(C(=O)O)C[C@@H]1O[C@H]1O[C@H](CO)[C@H](O)[C@H](O)[C@H]1O` [G6, Galα1(-4Neu5Acα2-6Galα1)2-4Neu5AcαProNHCbz], in assay [4], the Km amounted to 230 ± 40 µM and the kcat was found to be 11.9 ± 0.5 s⁻¹. With `CC(=O)NC1C(OCCCCl)OC(CO)C(O)C1OC1OC(CO)C(O)C(OC2(C(=O)O)CC(O)C(N=[N+]=[N-])C(C(N=[N+]=[N-])C(C)O)O2)C1O` (stereo not drawn) [Leg5,7diN3α2-3Galβ1-3GalNAcβProCl], the Product entry in assay [2] was “√”. For the compound `O=C(O)C(=O)C[C@H](O)[C@@H](O)[C@@H](O)[C@H](O)[C@H](O)CO` [Kdn, 2-keto-3-deoxynonulosonic acid], on NmCSS, the “Percentage conversion (%) CMP-Sialic acid” value is recorded as “Quantitative ^a”. Consider `O=C(O)[C@H]1O[C@H](OP(=O)(O)OP(=O)(O)OC[C@H]2O[C@@H](n3ccc(=O)[nH]c3=O)[C@H](O)[C@@H]2O)[C@H](O)[C@@H](O)[C@@H]1O` [UDP-GlcA], for which the “Percentage conversion (%)” value amounted to 0% in assay [3] (11 μg/mL NmSiaDW, 10 min) and 0% in assay [3] (0.66 mg/mL NmSiaDW, 10 h). Regarding `CC(=O)N[C@@H]1[C@@H](OP(=O)(O)OP(=O)(O)OC[C@H]2O[C@@H](n3ccc(=O)[nH]c3=O)[C@H](O)[C@@H]2O)O[C@H](CO)[C@@H](O)[C@@H]1O` [UDP-ManNAc], the “Percentage conversion (%)” value is 0% in assay [3] (11 μg/mL NmSiaDW, 10 min) and 0% in assay [3] (0.66 mg/mL NmSiaDW, 10 h). With `CC(=O)NC1C(O)CC(OCC2OC(OCCCN)C(O)C(O)C2O)(C(=O)O)OC1C(O)C(O)CO` (stereo not shown) [Neu5Acα2-6GalβProNH2], in assay [2], the Product result is given as “√”. `O=C(CO)N[C@H]1[C@H]([C@H](O)[C@H](O)CO)OC(O)(C(=O)O)C[C@@H]1O` (stereo partly shown) [Neu5Gc, N-glycolylneuraminic acid]: in assay [1], the “Percentage conversion (%) Transferase Reaction” value is 47 ± 3% and 88 ± 3%. In addition, at NmCSS, the “Percentage conversion (%) CMP-Sialic acid” value is given as 90 ± 2 ^a %. Take `CC(=O)N[C@H]1[C@H]([C@H](O)[C@H](O)CO)O[C@@](OC[C@H]2O[C@H](O[C@H]3C[C@](OC[C@H]4O[C@H](O[C@H]5C[C@](OC[C@H]6O[C@H](O[C@H]7C[C@](OCCCNC(=O)OCc8ccccc8)(C(=O)O)O[C@@H]([C@H](O)[C@H](O)CO)[C@@H]7NC(C)=O)[C@H](O)[C@@H](O)[C@H]6O)(C(=O)O)O[C@@H]([C@H](O)[C@H](O)CO)[C@@H]5NC(C)=O)[C@H](O)[C@@H](O)[C@H]4O)(C(=O)O)O[C@@H]([C@H](O)[C@H](O)CO)[C@@H]3NC(C)=O)[C@H](O)[C@@H](O)[C@H]2O)(C(=O)O)C[C@@H]1O[C@H]1O[C@H](CO)[C@H](O)[C@H](O)[C@H]1O` [G8, Galα1(-4Neu5Acα2-6Galα1)3-4Neu5AcαProNHCbz]: in assay [4], the Km is 250 ± 40 µM and the kcat was found to be 10.3 ± 0.5 s⁻¹.

On to `CC(=O)N[C@H]1[C@H]([C@H](O)[C@H](O)CO)OC(OC[C@H]2O[C@@H](Oc3ccc([N+](=O)[O-])cc3)[C@H](O)[C@@H](O)[C@H]2O)(C(=O)O)C[C@@H]1O` (stereo partly shown) [Neu5Acα2-6GalβpNP], for which the Product result in assay [2] is “√”. `CC(=O)N[C@H]1[C@H]([C@H](O)[C@H](O)CO)O[C@](OP(=O)(O)OC[C@H]2O[C@@H](n3ccc(N)nc3=O)[C@H](O)[C@@H]2O)(C(=O)O)C[C@@H]1O` [CMP-Neu5Ac, cytidine-5′-monophosphate Neu5Ac]: the “Percentage conversion (%)” value is listed as 0% in assay [3] (11 μg/mL NmSiaDW, 10 min) and 0% in assay [3] (0.66 mg/mL NmSiaDW, 10 h). For the compound `CC(=O)N[C@H]1[C@H]([C@H](O)[C@H](O)CO)OC(O)(C(=O)O)C[C@@H]1OC(C)=O` (stereo partly shown) [Neu4,5Ac, 4-O-acetyl-N-acetylneuraminic acid], in assay [1], the “Percentage conversion (%) Transferase Reaction” value amounted to 0%. For the same compound, the “Percentage conversion (%) CMP-Sialic acid” value at NmCSS is recorded as 53 ± 1 ^a %. In the case of `CC(=O)N[C@H]1[C@H]([C@H](O)[C@H](O)CO)O[C@@](OCCCNC(=O)OCc2ccccc2)(C(=O)O)C[C@@H]1O[C@H]1O[C@H](CO[C@]2(C(=O)O)C[C@H](O[C@H]3O[C@H](CO[C@]4(C(=O)O)C[C@H](O[C@H]5O[C@H](CO[C@]6(C(=O)O)C[C@H](O)[C@@H](NC(C)=O)[C@H]([C@H](O)[C@H](O)CO)O6)[C@H](O)[C@H](O)[C@H]5O)[C@@H](NC(C)=O)[C@H]([C@H](O)[C@H](O)CO)O4)[C@H](O)[C@H](O)[C@H]3O)[C@@H](NC(C)=O)[C@H]([C@H](O)[C@H](O)CO)O2)[C@H](O)[C@H](O)[C@H]1O` [S7, Neu5Acα2(-6Galα1-4Neu5Acα2)3-ProNHCbz], in assay [5], the Km is 70 ± 10 µM and the kcat was 5.5 ± 0.2 s⁻¹. In the case of `C[C@@H]1O[C@H](OP(=O)(O)OP(=O)(O)OC[C@H]2O[C@@H](n3cnc4c(=O)[nH]c(N)nc43)[C@H](O)[C@@H]2O)[C@@H](O)[C@H](O)[C@@H]1O` [GDP-Fucose], the “Percentage conversion (%)” value was 0% in assay [3] (11 μg/mL NmSiaDW, 10 min) and 0% in assay [3] (0.66 mg/mL NmSiaDW, 10 h). `CC(=O)N[C@H]1[C@@H](OP(=O)(O)OP(=O)(O)OC[C@H]2O[C@@H](n3ccc(=O)[nH]c3=O)[C@H](O)[C@@H]2O)O[C@H](CO)[C@H](O)[C@@H]1O` [UDP-GalNAc]: the “Percentage conversion (%)” value is recorded as 0% in assay [3] (11 μg/mL NmSiaDW, 10 min) and 1.9 ± 0.2% in assay [3] (0.66 mg/mL NmSiaDW, 10 h). Moreover, the “donor substrate quality in words” value in assay [3] (compared to UDP-Gal, acceptor S3) was “tolerated as poor donor substrate”. `CC(=O)N[C@@H]1C(O)O[C@H](CO)[C@@H](N=[N+]=[N-])[C@@H]1O` (stereo partly shown) [ManNAc4N3, 4-azido-4-deoxy-N-acetylmannosamine]: the “Percentage conversion (%) CMP-Sialic acid” value in the assay with NmCSS and PmAldolase is listed as 90 ± 3 ^b %. On to `[N-]=[N+]=N[C@H](C=O)[C@@H](O)[C@H](O)[C@H](O)CO` [Man2N3, 2-azido-2-deoxy-mannose], for which, in assay [1], the “Percentage conversion (%) Transferase Reaction” value was 0%. In the assay with NmCSS and PmAldolase, the “Percentage conversion (%) CMP-Sialic acid” value is reported as 77 ± 1 ^b %. Consider `O=C(O)[C@H]1O[C@H](OP(=O)(O)OP(=O)(O)OC[C@H]2O[C@@H](n3ccc(=O)[nH]c3=O)[C@H](O)[C@@H]2O)[C@H](O)[C@@H](O)[C@H]1O` [UDP-GalA], for which the “Percentage conversion (%)” value in assay [3] (11 μg/mL NmSiaDW, 10 min) was 0%; in assay [3] (0.66 mg/mL NmSiaDW, 10 h), less than 1%. As to `CC(=O)N[C@H]1[C@H]([C@H](O)[C@H](O)COC(C)=O)OC(O)(C(=O)O)C[C@@H]1O` (stereo partly shown) [Neu5,9Ac, 9-O-acetyl-N-acetylneuraminic acid], the “Percentage conversion (%) Transferase Reaction” value in assay [1] is 0%. Further, at NmCSS, the “Percentage conversion (%) CMP-Sialic acid” value was 61 ± 2 ^a %. `CC(=O)N[C@H]1[C@H]([C@H](O)[C@H](O)CO)OC(O)(C(=O)O)C[C@@H]1O` (stereo partly shown) [Neu5Ac, N-acetylneuraminic acid]: the “Percentage conversion (%) CMP-Sialic acid” value at NmCSS was “Quantitative ^a”.

Leg5,7Ac2α2-3Galβ1-3GalNAcβProN3: in assay [2], the Product result is given as “Not Detected”. For `[N-]=[N+]=NCC(=O)N[C@@H]1C(O)O[C@H](CO)[C@@H](O)[C@@H]1O` (stereo partly shown) [ManNAz, N-azidoacetylmannosamine], in the assay with NmCSS and PmAldolase, the “Percentage conversion (%) CMP-Sialic acid” value is recorded as “Quantitative ^b”. On to `CC(=O)NC1C(O)CC(OC2C(O)C(CO)OC(OC3C(O)C(CO)OC(OCCCN=[N+]=[N-])C3NC(C)=O)C2O)(C(=O)O)OC1C(O)C(O)CO` (stereo not shown) [Neu5Acα2-3Galβ1-3GalNAcβProN3], for which, in assay [2], the Product result is reported as “√” and the “acceptor substrate suitability in words” value is given as “could also tolerate”. As for `CC(=O)N[C@@H]1C(O)O[C@H](CN=[N+]=[N-])[C@@H](O)[C@@H]1O` (stereo partly shown) [ManNAc6N3, 6-azido-6-deoxy-N-acetylmannosamine], the “Percentage conversion (%) CMP-Sialic acid” value in the assay with NmCSS and PmAldolase was 91 ± 10 ^b %.

For the compound `CO[C@H](CO)[C@@H](O)[C@@H]1OC(O)(C(=O)O)C[C@H](O)[C@H]1NC(C)=O` (stereo partly shown) [Neu5Ac8OMe, 8-O-methyl-N-acetylneuraminic acid], the “Percentage conversion (%) CMP-Sialic acid” value at NmCSS is 79 ± 1 ^a %. Turning to `CC(=O)N[C@H]1[C@H]([C@H](O)[C@H](O)CO)O[C@@](OC[C@H]2O[C@H](O[C@H]3C[C@](OCCCNC(=O)OCc4ccccc4)(C(=O)O)O[C@@H]([C@H](O)[C@H](O)CO)[C@@H]3NC(C)=O)[C@H](O)[C@@H](O)[C@H]2O)(C(=O)O)C[C@@H]1O[C@H]1O[C@H](CO)[C@H](O)[C@H](O)[C@H]1O` [G4, Galα1-4Neu5Acα2-6Galα1-4Neu5AcαProNHCbz], the kcat in assay [4] was found to be 23.1 ± 1.1 s⁻¹. In the case of Neu5Ac9N3α2-6Galα1-4Neu5AcαProNHCbz, in assay [2], the Product result is “√”.

As a reminder, the Km is the substrate concentration at which the rate is half of its maximum. Broadly, the kcat is the number of substrate molecules converted per active site and unit of time at saturation.
